Tested on: panel of cancer cell lines
Assay: Cell viability (CellTiter-Glo) dose-response across cancer cell line panel;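 as to EC50: after 72 h compound incubation with CellTiter-Glo ATP readout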
Format: cell-based, human
Settings: for EC50: Homo sapiens
Excerpt: Next, we explored the effect of CSN5 inhibition on the viability of cancer cells. To obtain a comprehensive picture, we generated dose–response curves with a CSN5 inhibitor across more than 500 cancer cell lines in a previously described standardized setting[47] (Supplementary Data 1).
A standardized CellTiter-Glo Assay (Promega #G7570) based on the quantification of ATP was applied according to the manufacturer's protocol to measure the amount of viable cells in culture. In brief, cells were seeded into 384-well plates at optimal density for each cell line. After 4 h, compounds were added at different concentrations in growth medium and incubated for another 72 h in a humidifying chamber at 37 °C and 5% CO2. […] EC50 values were calculated from the plot of percentage of inhibition versus inhibitor concentration using the nonlinear regression analysis software Origin 7.5SR6 (OriginLab Corp.).

- EC50 (59M): 2650 nM
- EC50 (92.1): 3880 nM
- EC50 (639-V): 723 nM
- EC50 697: 477 nM
- EC50 (769-P): 13900 nM
- EC50 (786-0, 786-O): 1050 nM
- EC50 (1321-N1, 1321N1): 3680 nM
- EC50 (8505C): 829 nM
- EC50 (A4/Fuk): 120 nM
- EC50 (A101D): 372 nM
- EC50 (A 172, A172): 13400 nM
- EC50 (A204, A-204): 206 nM
- EC50 (A498, A-498): 1400 nM
- EC50 (A549, A549): 1410 nM
- EC50 (A673, A-673): 431 nM
- EC50 (A704, A-704): 1640 nM
- EC50 (A2058, A2058): 2050 nM
- EC50 (A2780, A2780): 279 nM
- EC50 (A-375, A-375): 690 nM
- EC50 (ABC-1, ABC-1): 485 nM
- EC50 (ACC-MESO-1, ACC-MESO-1): 2400 nM
- EC50 (AM-38, AM-38): 983 nM
- EC50 (AML-193): 3210 nM
- EC50 (AN3-CA, AN3 CA): 2230 nM
- EC50 (ASPC1, AsPC-1): 4740 nM
- EC50 (AU565, AU565): 1350 nM
- EC50 (BC-3C): 2030 nM
- EC50 (BEN): 12500 nM
- EC50 (BFTC-909, BFTC-909): 7580 nM
- EC50 (BICR 6): 1110 nM
- EC50 (BICR 16): 1020 nM
- EC50 (BICR 31): 1210 nM
- EC50 (BT-16, BT-16): 3280 nM
- EC50 (BT-549, BT-549): 296 nM
- EC50 (BXPC-3, BxPC-3): 6030 nM
- EC50 (C3A): > 30000 nM
- EC50 (C32, C32): 830 nM
- EC50 (CAKI-1, Caki-1): 845 nM
- EC50 (CAKI-2, Caki-2): 3040 nM
- EC50 (CAL-12T): 474 nM
- EC50 (CAL-27, CAL 27): 713 nM
- EC50 (CAL-29): 5690 nM
- EC50 (CAL-54, CAL-54): 1170 nM
- EC50 (CAL-85-1, CAL-85-1): 7990 nM
- EC50 (CAL-120, CAL-120): 6810 nM
- EC50 (CAL-148, CAL-148): 1680 nM
- EC50 (CAMA-1, CAMA-1): 20500 nM
- EC50 (CAPAN-1, Capan-1): 643 nM
- EC50 (CAS-1): 705 nM
- EC50 (CCRF-HSB-2, CCRF-HSB-2): 150 nM
- EC50 (CEM/C1, CEMC1): 343 nM
- EC50 (CFPAC-1, CFPAC-1): 3540 nM
- EC50 (CL-14): > 30000 nM
- EC50 (CL-34): 3880 nM
- EC50 (CMK): 1800 nM
- EC50 (CMK-86, CMK-86): 1720 nM
- EC50 (COLO 201, COLO 201): 1120 nM
- EC50 (COLO 205, COLO 205): 12500 nM
- EC50 (COLO 320, COLO-320): 1400 nM
- EC50 (COLO 699, COLO-699): 3050 nM
- EC50 (COLO 704, COLO-704): 634 nM
- EC50 (COLO-678, COLO-678): 3410 nM
- EC50 (COLO-679, COLO-679): 492 nM
- EC50 (COLO-741, COLO 741): 1340 nM
- EC50 (COLO-829, COLO 829): 10700 nM
- EC50 (COR-L23, COR-L23): 11800 nM
- EC50 (COR-L105, COR-L105): 4940 nM
- EC50 (COV362, COV362): 8840 nM
- EC50 (COV644): 1040 nM
- EC50 (CW-2, CW-2): 4950 nM
- EC50 (Calu-1, Calu-1): 13000 nM
- EC50 (Calu-6, Calu-6): 539 nM
- EC50 (ChaGo-K-1, ChaGo-K-1): 967 nM
- EC50 (Ci-1, CI-1): 193 nM
- EC50 (DAN-G): 13400 nM
- EC50 (DB): 290 nM
- EC50 (DLD-1, DLD-1): > 30000 nM
- EC50 (DMS-53, DMS 53): 8760 nM
- EC50 (DMS-153, DMS 153): 405 nM
- EC50 (DMS-273, DMS 273): 691 nM
- EC50 (DU-4475, DU4475): 218 nM
- EC50 (Daoy): 542 nM
- EC50 (Detroit 562, Detroit 562): 4000 nM
- EC50 (EBC-1, EBC-1): 5630 nM
- EC50 (EOL1, EOL-1): 262 nM
- EC50 (FaDu): 550 nM
- EC50 (Fu97, FU97): 942 nM
- EC50 (G-401, G-401): 402 nM
- EC50 (G-402, G-402): 4100 nM
- EC50 (GAMG): 2920 nM
- EC50 (GB-1, GB-1): 3900 nM
- EC50 (GDM-1, GDM-1): 162 nM
- EC50 (GI-1, GI-1): 3270 nM
- EC50 (GP2d): > 30000 nM
- EC50 (H4): 790 nM
- EC50 (HARA): 9030 nM
- EC50 (HCC15, HCC-15): 5200 nM
- EC50 (HCC44, HCC-44): 2380 nM
- EC50 (HCC78, HCC-78): 2290 nM
- EC50 (HCC95, HCC-95): 18400 nM
- EC50 (HCC827, HCC827): 1780 nM
- EC50 (HCC1143, HCC1143): 6070 nM
- EC50 (HCC1187, HCC1187): 7500 nM
- EC50 (HCC1588, HCC-1588): 421 nM
- EC50 (HCC1806, HCC1806): 5450 nM
- EC50 (HCC1954, HCC1954): 2180 nM
- EC50 (HCC4006, HCC4006): 1730 nM
- EC50 (HCC-56): 413 nM
- EC50 (HCC-1359): 1870 nM
- EC50 (HCC-1833): 3410 nM
- EC50 (HCT-15, HCT-15): 1360 nM
- EC50 (HD-MY-Z): 531 nM
Structure (SMILES): COCc1ccccc1NCc1ccc([C@H]2[C@@H](O)CCCc3cncn32)c(-c2ccccc2Cl)c1 [CSN5i-2, (5S,6S)-5-(2′-chloro-5-(((2-(methoxymethyl)phenyl)amino)methyl)-[1,1′-biphenyl]-2-yl)-6,7,8,9-tetrahydro-5H-imidazo[1,5-a]azepin-6-ol]
- AMAX (59M): -68.225
- AMAX (A101D): -76.7398
- AMAX (A172): -55.6841
- AMAX (A549): -65.9191
- AMAX (A2780): -85.074
- AMAX (ABC-1): -77.8125
- AMAX (AM-38): -77.876
- AMAX (AU565): -62.6343
- AMAX (AsPC-1): -59.6849
- AMAX (BFTC-909): -64.2004
- AMAX (BICR 6): -79.1425
- AMAX (BICR 16): -84.074
- AMAX (Calu-6): -81.2731
- AMAX (FaDu): -81.7331
- AMAX (GP2d): -35.7458
- AMAX (HARA): -63.4816
- AMAX (HCC1143): -57.1762
- AMAX (HCC1187): -75.8993
- AMAX (HCC1954): -88.6962
- AMAX (HD-MY-Z): -86.2175
- AMAX (HEC-151): -65.4188
- AMAX (HEL): -95.954
- AMAX (HL-60): -90.6278
- AMAX (HLC-1): -73.9563
- AMAX (HLE): -90.9124
- AMAX (HLF): -62.5035
- AMAX (HSC-4): -75.9669
- AMAX (HT-29): -64.9206
- AMAX (HUP-T4): -81.3707
- AMAX (Hep3B): -76.5642
- EC50 (HCC70, HCC70): 2350 nM

From paper PMC5078989, “Targeted inhibition of the COP9 signalosome for treatment of cancer” (Nature Communications, 2016)
